Reference: article PMC7357040, “Strategy for Designing Selective Lysosomal Acid α-Glucosidase Inhibitors: Binding Orientation and Influence on Selectivity” (Molecules, 2020)

Key:
[1] = biological target: T1, lysosomal acid α-glucosidase (GAA) (Homo sapiens, UniProt P10253); test: Lysosomal acid α-glucosidase (GAA) inhibition assay, Myozyme as enzyme source, 4-methylumbelliferyl-α-D-glucopyranoside substrate; assay type: biochemical; details: for IC50: Myozyme, pH 6.8, 37 °C 30 min; for Selectivity Index ER α-Glcase II/GAA: ratio of IC50 ER α-glucosidase II / IC50 GAA
T1 construct: purchased Genzyme
Protocol: (§1) The inhibitory activity toward lysosomal acid α-glucosidase (GAA) was measured with Myozyme (Genzyme; Boston, MA, USA) as the enzyme source, and 4-methylumbelliferyl-α-D-glucopyranoside (Sigma-Aldrich Co.; St. Louis, Mo, USA) as substrate. The reaction mixture consisted 100 mM McIlvaine buffer (pH 6.8), 0.25% sodium taurocholate and 0.1% Triton X-100 (Nacalai Tesque Inc.; Kyoto, Japan), and the appropriate amount of enzyme. The reaction mixture was pre-incubated at 0 °C for 45 min, and the reaction was started by the using 4 mM substrate solution, followed by incubation at 37 °C for 30 min. The reaction was stopped by the addition of 1.6 mL of the solution of 400 mM Glycine-NaOH solution (pH 10.6). The released 4-methylumbelliferone was measured (excitation 362 nm, emission 450 nm) with a F-4500 fluorescence spectrophotometer (Hitachi, Tokyo, Japan). ER α-glucosidase II was prepared from the rat liver according to the method of Hino et al.. For ER α-glucosidase II activities, 4-nitrophenyl-α-D-glucopyranoside (Sigma-Aldrich Co.; St. Louis, MO, USA) was used as substrate. The reaction mixture contained phosphate buffer (pH 6.8), 0.25% sodium taurocholate, and the appropriate amount of enzyme. The reaction mixture was pre-incubated at 0 °C for 30 min, and the reaction was started by the using 4 mM substrate solution, followed by incubation at 37 °C for 30 min. The reaction was stopped by adding 0.4 mL of 400 mM Na2CO3. The released p-nitrophenol was measured spectrometrically at 400 nm.

[2] = biological target: T2, ER α-glucosidase II (Rattus norvegicus, UniProt A0A8I6GFL3); test: ER α-glucosidase II inhibition assay, enzyme prepared from rat liver, 4-nitrophenyl-α-D-glucopyranoside substrate; assay type: biochemical; details: for IC50: rat liver enzyme, pH 6.8, 37 °C 30 min, read-out: IC50 ER α-Glcase II
T2 construct: ER α-glucosidase II was prepared from the rat liver; from tissue; host or cells: rat liver
T2 sequence (A0A8I6GFL3 33-944): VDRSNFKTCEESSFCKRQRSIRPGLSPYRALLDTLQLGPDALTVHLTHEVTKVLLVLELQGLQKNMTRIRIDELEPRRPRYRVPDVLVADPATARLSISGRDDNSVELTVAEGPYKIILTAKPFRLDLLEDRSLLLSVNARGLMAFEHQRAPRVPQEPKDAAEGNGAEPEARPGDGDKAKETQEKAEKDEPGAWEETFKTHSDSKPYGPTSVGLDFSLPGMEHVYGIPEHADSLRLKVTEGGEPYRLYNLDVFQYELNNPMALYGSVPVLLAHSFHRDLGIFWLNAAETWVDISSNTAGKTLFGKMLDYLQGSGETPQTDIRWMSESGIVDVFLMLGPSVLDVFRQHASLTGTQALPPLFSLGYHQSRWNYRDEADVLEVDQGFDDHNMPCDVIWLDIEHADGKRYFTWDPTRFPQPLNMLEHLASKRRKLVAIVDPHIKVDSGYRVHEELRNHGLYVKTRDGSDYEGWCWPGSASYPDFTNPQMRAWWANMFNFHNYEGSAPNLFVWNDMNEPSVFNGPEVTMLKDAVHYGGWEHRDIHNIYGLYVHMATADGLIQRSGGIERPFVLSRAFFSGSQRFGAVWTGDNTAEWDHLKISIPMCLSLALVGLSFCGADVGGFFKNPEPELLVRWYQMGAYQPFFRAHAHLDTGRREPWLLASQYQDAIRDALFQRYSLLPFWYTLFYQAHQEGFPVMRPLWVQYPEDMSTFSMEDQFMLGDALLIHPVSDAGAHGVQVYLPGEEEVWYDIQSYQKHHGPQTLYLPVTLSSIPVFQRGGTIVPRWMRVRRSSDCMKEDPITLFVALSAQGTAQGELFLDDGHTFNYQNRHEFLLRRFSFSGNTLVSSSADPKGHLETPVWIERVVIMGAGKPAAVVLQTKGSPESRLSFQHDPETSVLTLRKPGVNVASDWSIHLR
Protocol: as §1

[3] = biological target: Jack bean α-mannosidase; set-up: method as in PMID 15771446; details: Figure 1; cited from earlier work
[4] = biological target: T1, lysosomal acid α-glucosidase (GAA); test: In vitro thermostability of GAA at 47 °C, remaining enzyme activity; assay type: biochemical; details: 10 µM compound, pH 6.8, incubation 60 min
Protocol: GAA was incubated in 100 mM McIlvaine buffer (pH 6.8) containing 0.25% sodium taurocholate and 0.1% Triton X-100 for 0, 20, 40, and 60 min, and the remaining enzyme activity was determined with 4-methylumbelliferl-α-D-glucopyranoside as substrate. The enzyme activity was 83% lost within 60 min under incubation without test samples, while the incubation with α-1-C-heptyl-LAB effectively stabilized GAA. The enzyme activity remained over 94% even under the incubation for 60 min in the presence of 10 µM α-1-C-heptyl-LAB (Figure 8). […] In contrast, 10 µM α-1-C-ethyl-LAB could not sufficiently protect the enzyme activity (50% activity remained at 60 min).
GAA was incubated at 47 °C in 100 mM sodium citrate buffer (pH 6.8) containing 1 mg/mL of bovine serum albumin (BSA) at various incubation times with or without iminosugars. Each value represents the mean ± SEM (n = 3).
The enzyme GAA was incubated at 47 °C in 100 mM McIlvaine buffer (pH 6.8) containing 0.25% sodium taurocholate and 0.1% Triton X-100 for 0, 20, 40, and 60 min. After incubation, the remaining GAA activity was assayed immediately using 4 mM 4-methylumbelliferyl-α-D-glucopyranoside as substrate.

[5] = biological target: lysosomal α-galactosidase A; set-up: method as in PMID 15771446; details: Figure 1; cited from earlier work

SMILES | IC50 [1] [µM] | Selectivity Index ER α-Glcase II/GAA [1] | IC50 [2] [µM] | other results
OC[C@H]1NC[C@@H](O)[C@@H](O)[C@@H]1O [DMJ, 1,5-dideoxy-1,5-imino-D-mannitol] | – | – | – | IC50 [3]: 774 µM
CC[C@@H]1N[C@@H](CO)[C@H](O)[C@H]1O [α-1-C-Ethyl-LAB] | 11 ± 1.1 | 49.2 | 541 ± 26 | Inhibition of GAA, fold lower than LAB ([1]; relative to LAB): 21 fold; Inhibition of ER α-glucosidase II, fold weaker than LAB ([2]; relative to LAB): 193 fold; GAA enzyme activity remained [4]: 50%
OC[C@H]1NC[C@H](O)[C@@H](O)[C@H]1O [DGJ, 1,5-dideoxy-1,5-imino-D-galactitol] | – | – | – | IC50 [5]: 0.07 µM
CCC[C@@H]1N[C@@H](CO)[C@H](O)[C@H]1O [α-1-C-Propyl-LAB] | 7.4 ± 0.31 | 55.8 | 413 ± 50 | –
OC[C@@H]1NC[C@H](O)[C@H]1O [LAB, 1,4-Dideoxy-1,4-imino-L-arabinitol] | – | – | 2.8 ± 0.22 | Inhibition potency of GAA, times weaker than DNJ ([1]; relative to DNJ): 3.5 times; GAA enzyme activity remained [4]: 89%

The next lines start with results.

IC50 [1] [µM] | Selectivity Index ER α-Glcase II/GAA [1] | IC50 [2] [µM] | SMILES | other results
0.71 ± 0.029 | 140.8 | 100 ± 6.2 | CCCCCC[C@@H]1N[C@@H](CO)[C@H](O)[C@H]1O [α-1-C-Hexyl-LAB] | –
1.1 ± 0.088 | 163.6 | 180 ± 19 | CCCCC[C@@H]1N[C@@H](CO)[C@H](O)[C@H]1O [α-1-C-Pentyl-LAB] | –
– | – | 8 ± 0.55 | OC[C@H]1NC[C@H](O)[C@@H](O)[C@@H]1O [DNJ, 1,5-Dideoxy-1,5-imino-D-glucitol, reference compound] | –
1.6 ± 0.04 | 142.5 | 228 ± 13 | CCCC[C@@H]1N[C@@H](CO)[C@H](O)[C@H]1O [α-1-C-Butyl-LAB] | –
0.44 ± 0.044 | 168.2 | 74 ± 3.7 | CCCCCCC[C@@H]1N[C@@H](CO)[C@H](O)[C@H]1O [α-1-C-Heptyl-LAB, α-1-C-heptyl-1,4-dideoxy-1,4-imino-L-arabinitol] | Selectivity index, fold better relative to the parent LAB ([1]; relative to LAB): 31 fold; GAA enzyme activity remained [4]: over 94%
2 ± 0.12 | 13.0 | 26 ± 2 | C[C@@H]1N[C@@H](CO)[C@H](O)[C@H]1O [α-1-C-Methyl-LAB] | –
